{"source": "patent US8618357B2", "about": "“Sweetpotato SRD1 cDNA and transgenic plants with high-numbered storage roots using the same” (Korea University Research and Business Foundation, priority 2010, dated 2013)", "test_system": "SRD1 transcript", "assay": "Transcriptional regulation of SRD1 in response to exogenous IAA in fibrous roots of single-leaf plantlets (real-time RT-PCR)", "format": "in vivo, sweetpotato", "settings": "for transcript level of SRD1: fibrous roots, 25° C. in the dark, FIG. 7A; for transcript level of SRD1 (time course): FIG. 7B", "description": "To determine the transcriptional regulation of SRD1, SRD1-specific primers [5′-[…]-3′(SEQ ID NO.: 10) and 5′-GTGCACGAAACTCCCCTT-3′(SEQ ID NO.: 11)] were designed to contain nucleotide 180 (the nucleotide showing an SNP between SRD1 and IbMADS1) and the 3 bp deletion region in SRD1 at the 3′ end of the forward primer and at the 3′ end of the reverse primer, respectively (FIG. 1).\nThe roots of sweetpotato were treated with IAA according to the following method. Sweetpotato plantlets bearing a single leaf and petiole (single-leaf plantlets) were collected from sweetpotato plants and incubated in flasks containing distilled water for 3 weeks. After fibrous roots had developed from the distal end of the petiole, the single-leaf plantlets were incubated in various concentrations of IAA (0, 50, 500, 1000, 2000 μM) at 25° C. in the dark for various time periods (0-24 h). After the hormone treatment, total RNA was extracted from the fibrous roots using the RNeasy Plant Mini Kit™ (Qiagen) and used for real-time and semi-quantitative reverse transcription-PCR (RT-PCR).\nTotal RNA (5 μg) was used for first-strand cDNA synthesis using the SuperScript III first-strand cDNA synthesis kit (Invitrogen). The resulting cDNA solution was then diluted with 30 μl of TE (10 mM TRIS-HCl, pH 8.0, 1 mM EDTA). The primers for real-time RT-PCR were as follows: SRD1 (5′-[…]-3′; SEQ ID NO.: 10), 5′-GTGCACGAAACTCCCCTT-3′; SEQ ID NO. 11). Real-time PCR analysis was performed using the LightCycler 480 quantification system (Roche Diagnostics) according to the manufacturer's instructions. Expression levels were normalized with β-tubulin expression amplified with 5′-[…]-3′ (SEQ ID NO.: 12) and 5′-[…]-3′ (SEQ ID NO.: 13) primers. PCR were performed starting with pre-denaturation at 95° C. for 10 min before 45 cycles of denaturation at 95° C. for 10 sec, annealing at 58° C. for 10 sec and extension at 72° C. for 20 sec. Following the amplification phase, a melting curve analysis was conducted from 65° C. to 97° C. The second derivative maximum method in the LightCycler 480 quantification software (Roche Diagnostics) was used to evaluate the data.", "data": [{"smiles": "O=C(O)Cc1c[nH]c2ccccc12", "note": "[IAA, Indole-3-acetic acid]", "values": [{"measurement": "transcript level of SRD1", "setting": "50 μM IAA", "result": "decreased"}, {"measurement": "transcript level of SRD1 (time course)", "setting": "500 μM IAA, 0.5 h after treatment", "result": "decreased compared with the control"}, {"measurement": "transcript level of SRD1 (time course)", "setting": "500 μM IAA, 1 h after treatment", "result": "decreased compared with the control"}, {"measurement": "transcript level of SRD1 (time course)", "setting": "500 μM IAA, 3 h after treatment", "result": "decreased compared with the control"}, {"measurement": "transcript level of SRD1 (time course)", "setting": "500 μM IAA, 6 h after treatment", "result": "increased sharply"}, {"measurement": "transcript level of SRD1 (time course)", "setting": "500 μM IAA, 12 h after treatment", "result": "decreased compared with the control"}, {"measurement": "transcript level of SRD1 (time course)", "setting": "500 μM IAA, 24 h after treatment", "result": "decreased compared with the control"}, {"measurement": "transcript level of SRD1", "setting": "500 μM IAA", "result": "decreased"}, {"measurement": "transcript level of SRD1", "setting": "1000 μM IAA", "result": "increased sharply"}, {"measurement": "transcript level of SRD1", "setting": "2000 μM IAA", "result": "decreased to almost the same level as that observed at 0 μM IAA"}]}]}
